Numbers after ± are expanded uncertainties.
Experiments:
[1] = 101 kPa, Liquid
[2] = xn = mol fraction of the nth substance listed; conditions: 101 kPa, Liquid, x1 = 1

Row | SMILES | mass density ([1]; 303.15 K) [kg/m3] | viscosity ([1]; 303.15 K) [mPa·s] | mass density ([1]; 313.15 K) [kg/m3] | viscosity ([1]; 313.15 K) [mPa·s] | mass density ([1]; 323.15 K) [kg/m3] | viscosity ([1]; 323.15 K) [mPa·s] | mass density ([1]; 333.15 K) [kg/m3] | viscosity ([1]; 333.15 K) [mPa·s] | mass density ([1]; 343.15 K) [kg/m3] | viscosity ([1]; 343.15 K) [mPa·s] | mass density ([2]; 303.15 K) [kg/m3] | viscosity ([2]; 303.15 K) [mPa·s] | mass density ([2]; 313.15 K) [kg/m3] | viscosity ([2]; 313.15 K) [mPa·s] | mass density ([2]; 323.15 K) [kg/m3] | viscosity ([2]; 323.15 K) [mPa·s] | mass density ([2]; 333.15 K) [kg/m3] | viscosity ([2]; 333.15 K) [mPa·s] | mass density ([2]; 343.15 K) [kg/m3] | viscosity ([2]; 343.15 K) [mPa·s] | further results
1 | c1ccccc1 [benzene] | 868.21 ± 0.7 | 0.561 ± 0.015 | 857.46 ± 0.73 | 0.493 ± 0.014 | 846.65 ± 0.76 | 0.436 ± 0.013 | 835.72 ± 0.8 | 0.388 ± 0.012 | 824.87 ± 0.83 | 0.345 ± 0.011 |  |  |  |  |  |  |  |  |  |  | 
2 | c1ccccc1 [benzene] + CN1CCCC1=O |  |  |  |  |  |  |  |  |  |  | 868.21 ± 0.7 | 0.561 ± 0.015 | 857.46 ± 0.73 | 0.493 ± 0.014 | 846.65 ± 0.76 | 0.436 ± 0.013 | 835.72 ± 0.8 | 0.388 ± 0.012 | 824.87 ± 0.83 | 0.345 ± 0.011 | 
3 | C1CCCCC1 [cyclohexane] | 769.1 ± 0.97 | 0.821 ± 0.021 | 759.6 ± 1 | 0.696 ± 0.018 | 749.98 ± 1 | 0.598 ± 0.016 | 740.23 ± 1.1 | 0.52 ± 0.014 |  |  |  |  |  |  |  |  |  |  |  |  | 
4 | C1CCCCC1 [cyclohexane] + CN1CCCC1=O |  |  |  |  |  |  |  |  |  |  | 769.1 ± 0.97 | 0.821 ± 0.021 | 759.6 ± 1 | 0.696 ± 0.018 | 749.98 ± 1 | 0.598 ± 0.016 | 740.23 ± 1.1 | 0.52 ± 0.014 |  |  | 
5 | Cc1ccccc1 [toluene] | 858.32 ± 0.76 | 0.525 ± 0.015 | 848.92 ± 0.79 | 0.47 ± 0.014 | 839.45 ± 0.82 | 0.423 ± 0.013 | 829.93 ± 0.85 | 0.385 ± 0.012 | 820.3 ± 0.88 | 0.35 ± 0.012 |  |  |  |  |  |  |  |  |  |  | mass density ([1]; 353.15 K): 810.54 ± 0.91 kg/m3; viscosity ([1]; 353.15 K): 0.323 ± 0.011 mPa·s
6 | Cc1ccccc1 [toluene] + CN1CCCC1=O |  |  |  |  |  |  |  |  |  |  | 858.32 ± 0.76 | 0.525 ± 0.015 | 848.92 ± 0.79 | 0.47 ± 0.014 | 839.45 ± 0.82 | 0.423 ± 0.013 | 829.93 ± 0.85 | 0.385 ± 0.012 | 820.3 ± 0.88 | 0.35 ± 0.012 | mass density ([2]; 353.15 K): 810.54 ± 0.91 kg/m3; viscosity ([2]; 353.15 K): 0.323 ± 0.011 mPa·s

From the NIST ThermoML archive (doi:10.1016/j.jct.2006.06.005)
